Assay results published in patent US7176224B2, “Oxazolyl-aryloxyacetic acid derivatives and their use as PPAR agonists” (Eli Lilly and Company, priority 2000, dated 2007).

Legend:
db/db mice = assay: Evaluation of glucose levels in db/db mice; format: in vivo; details: 30 mg/kg oral gavage daily for 7 days; 100% = glucose not differing from lean values
Method: Five week old male diabetic (db/db) mice [C57BlKs/j-m +/+ Lepr(db), Jackson Laboratory, Bar Harbor, Me.] or lean littermates (DB/?) were housed 6 per cage (10″20″8″ with aspen chip bedding) with food (Purina 5015) and water available at all times. After an acclimation period of 2 weeks, animals were individually identified by ear notches, weighed, and bled via the tail vein for determination of initial glucose levels. Blood was collected (100 μl) from unfasted animals by wrapping each mouse in a towel, cutting the tip of the tail with a scalpel, and milking blood from the tail into a heparinized capillary tube (Fisher) balanced on the edge of the bench. Sample was discharged into a heparinized microtainer with gel separator (VWR) and retained on ice. Plasma was obtained after centrifugation at 4° C. and glucose measured immediately. Remaining plasma was frozen until the completion of the experiment, when glucose and triglycerides were assayed in all samples. […]
Glucose was measured colorimetrically using commercially purchased reagents (Sigma #315-500). […] The absorbance of the dye produced is linearly related to the analyte in the sample. […] Standards (Sigma #339-11, Sigma #16-11, and Sigma #CC0534 for glucose, triglycerides and total cholesterol, respectively), quality control plasma (Sigma # A2034), and samples (2 or 5 μl/well) were measured in duplicate using 200 μl of reagent. […]

Hu apoAI transgenic mice = assay: Evaluation of triglyceride and cholesterol levels in hu apoAI transgenic mice; format: in vivo; details: 30 mg/kg oral gavage daily for 7 days; serum HDLc FPLC area under the curve, over mice receiving vehicle
Method: Five to six week old male mice, transgenic for human apoAI [C57B1/6-tgn(apoa1) 1rub, Jackson Laboratory, Bar Harbor, Me.] were housed five per cage (10″×20″8″ with aspen chip bedding) with food (Purina 5001) and water available at all times. After an acclimation period of 2 weeks, animals were individually identified by ear notches, weighed, and assigned to groups based on body weight. Beginning the following morning, mice were dosed daily by oral gavage for 7 days using a 20 gauge, 1½″ curved disposable feeding needle (Popper & Sons). Treatments were test compounds (30 mg/kg), a positive control (fenofibrate, 100 mg/kg) or vehicle [1% carboxymethylcellulose (w/v)/0.25% Tween80 (w/v); 0.2 ml/mouse]. Prior to termination on day 7, mice were weighed and dosed. Three hours after dosing, animals were anesthetized by inhalation of isoflurane (2–4%; Abbott Laboratories, Chicago, Ill.) and blood obtained via cardiac puncture (0.7–1.0 ml). Whole blood was transferred to serum separator tubes (Vacutainer SST), chilled on ice, and permitted to clot. Serum was obtained after centrifugation at 4° C. and frozen until analysis for triglycerides, total cholesterol, compound levels, and serum lipoprotein profile by fast protein liquid chromatography (FPLC) coupled to an inline detection system. After sacrifice by cervical dislocation, the liver, heart and epididymal fat pads were excised and weighed.
The animals dosed with vehicle had average triglycerides values of 60–80 mg/dl, which were reduced by the positive control fenofibrate (33–58 mg/dl with a mean reduction of 37%). The animals dosed with vehicle had average total serum cholesterol values of 140–180 mg/dl, which were increased by fenofibrate (190–280 mg/dl, with a mean elevation of 41%). […] increased the amount of HDLc (68–96 v-sec with a mean percent increase of 48%).
Glucose was measured colorimetrically using commercially purchased reagents (Sigma #315-500). According to the manufacturers, the procedures were modified from published work (McGowan, M. W., Artiss, J. D., Strandbergh, D. R. & Zak, B. Clin Chem, 20:470–5 (1974) and Keston, A. Specific colorimetric enzymatic analytical reagents for glucose. Abstract of papers 129th Meeting ACS, 31C (1956).); and depend on the release of a mole of hydrogen peroxide for each mole of analyte, coupled with a color reaction first described by Trinder (Trinder, P. Determination of glucose in blood using glucose oxidase with an alternative oxygen acceptor. Ann Clin Biochem, 6:24 (1969)). The absorbance of the dye produced is linearly related to the analyte in the sample. The assays were further modified in our laboratory for use in a 96 well format. Standards (Sigma #339-11, Sigma #16-11, and Sigma #CC0534 for glucose, triglycerides and total cholesterol, respectively), quality control plasma (Sigma # A2034), and samples (2 or 5 μl/well) were measured in duplicate using 200 μl of reagent. An additional aliquot of sample, pipetted to a third well and diluted in 200 μl water, provided a blank for each specimen. Plates were incubated at room temperature (18, 15, and 10 minutes for glucose, triglycerides and total cholesterol, respectively) on a plate shaker (DPC Micormix 5) and absorbance read at 500 nm (glucose and total cholesterol) or 540 nm (triglycerides) on a plate reader (Wallac Victor 1420). Sample absorbances were compared to a standard curve (100–800, 10–500, and 100–400 mg/dl for glucose, triglycerides and total cholesterol, respectively). Values for the quality control sample were always within the expected range and the coefficient of variation for samples was below 10%. All samples from an experiment were assayed at the same time to minimize inter-assay variability.
Serum lipoproteins were separated and cholesterol quantitated with an in-line detection system. Sample was applied to a Superose® 6 HR 10/30 size exclusion column (Amersham Pharmacia Biotech) and eluted with phosphate buffered saline-EDTA at 0.5 ml/min. […]

`Cc1oc(-c2cccc(-c3cccs3)c2)nc1CCOc1ccc(CC(C)(Oc2ccccc2)C(=O)O)cc1` (centres unmarked) [Example 5, 2-Methyl-3-(4-{2-[5-methyl-2-(3-thiophen-2-ylphenyl)oxazol-4-yl]ethoxy}phenyl)-2-phenoxypropionic acid] was tested. Which “Glucose Normalisation” value (db/db mice) did it give?
Its value is 71%.

And the “% HDLc Increase” value (Hu apoAI transgenic mice)?
The value was 94.5%.
